The values that follow come from patent US20150306081A1, “Chemotherapy for Drug-Resistant Cancer Cells” (THE UNIVERSITY OF SYDNEY, priority 2012, published 2015).

Data set [1] has as its system Pgp expressing 2008/P200A cells. Nature of the data set: MTT proliferation assay, 2008/P200A cells. The data set is classed as cell-based. The method, then:
(§1) The 2008 ovarian carcinoma cell line and the PAC-resistant 2008/P200A cell line (grown in 200 ng/mL of PAC) were kindly provided by Dr. John Allen (Centenary Institute, Sydney, Australia). Cells were grown in Dulbecco's modified Eagle's medium (DMEM; Life Technologies) with 10% (v/v) fetal calf serum (Sigma-Aldrich, St. Louis, Mo.) and supplemented with the following additions from Life Technologies: 1% (v/v) sodium pyruvate, 1% (v/v) non-essential amino acids, 100 U/mL penicillin, 100 μg/mL streptomycin, 2 mM L-glutamine and 0.28 μg/mL fungizone. The cells were then incubated at 37° C. in a humidified atmosphere of 5% CO2 and 95% air.
(§2) The effect of anti-cancer agents on cellular proliferation was examined using the MTT [3-(4,5-dimethylthiazol-2-yl)-2,5-diphenyl tetrazolium] method. In this assay, 3×10^3 cells/well were seeded in 96-well plates in 100 μL of media. The next day, serially diluted drugs of interest were added. […] The cells were incubated at 37° C. in a humidified atmosphere containing 5% CO2 and 95% air for 72 h. After this incubation, 10 μL of MIT (5 mg/mL) was added to each well and the incubation continued at 37° C. for 2 h. After solubilization of the cells with 100 μL of 10% SDS-50% isobutanol in 10 mM HCl, the plates were read at 570 nm using a scanning multi-well spectrophotometer (Victor™ Multilabel Counter plate reader; Perkin Elmer, Australia). Results were analyzed to calculate the concentration of chelator or complex necessary to reduce the absorbance to 50% (IC50) of the control.
In general terms: Tetrazolium dyes change colour on reduction, which living cells bring about.

Data set [2] relates to KBV1 cells. In words: Lysosomal integrity, acridine orange flow cytometry, KBV1 cells. The data set is classed as cell-based, Human. The method, then:
Lysotracker® red (Life Technologies) and acridine orange (Sigma-Aldrich) are dyes showing high specificity for lysosomes and were used to determine lysosomal membrane permeability (LMP). The Lysotracker® red was visually assessed by fluorescence microscopy utilizing a Zeiss Axio Observer.Z1 Fluorescence Microscope equipped with an AxioCam camera (Zeiss, Oberkochen, Germany) and acridine orange was quantified by flow cytometry (see below).
Briefly, cells were incubated with Lysotracker® red (50 nM) for 15 min/37° C. or acridine orange (20 nM) for 15 min/37° C., washed on ice 3 times with ice-cold PBS and then incubated with Cu[Dp44mT] (25 μM) for 30 min/37° C. or Dp44mT alone (25 μM) for 30 min or 24 h/37° C.
The dyes, Rh123 and acridine orange were detected with the FACS Canto flow cytometer (BD Biosciences) and 10,000 events were acquired for every sample. Data analysis was performed using FlowJo software, version 7.5.5 (Tree Star Inc., Ashland, OR).

Data set [3] relates to 2008/P200A cells. Nature of the data set: Uptake of 14C-Dp44mT, 2008/P200A cells. The data set is classed as cell-based. As to conditions: 2008/P200 cells, NH4Cl, MA or CLQ pre-incubation. The protocol: (§3) For the uptake assay, each 35 mm culture dish containing 5×10^5 cells was incubated with ^14C-doxorubicin, ^3H-vinblastine or ^14C-Dp44mT (all at 1 μCi) for 30 min/37° C. Cells were then washed on ice three times with ice-cold PBS and collected for analysis. Drug uptake was calculated as the number of drug molecules/cell. […] For studies using lysosomotropic agents, cells were pre-incubated with NH4Cl (5 mM), CLQ (100 μM) or MA (100 μM) for 30 min/37° C. prior to ^14C-Dp44mT uptake. […] For efflux assays, the same labeling procedure was conducted as in the uptake assay. […] After this procedure, the overlying media was removed using a Pasteur pipette and then placed in a counting vial. The cells were removed from the plate in 1 mL of PBS and then dispensed into a separate counting vial. The radiolabeled-drug efflux was calculated as a percentage of the total drug uptake by the cells found at zero time.

Data set [4] concerns non-Pgp expressing 2008 cells. Nature of the data set: MTT proliferation assay, 2008 cells. The data set is classed as cell-based. The conditions noted are these: 2008 cells, Val 1 μM, Ela 0.1 μM. The method, then:
as §1, §2

Data set [5] concerns Pgp-expressing KBV1 cells. Nature of the data set: MTT proliferation assay, KBV1 cells. As to conditions: 72 h. The data set is classed as cell-based, Human.
For data set [6], the system named is Pgp-expressing KBV1 cells. As to conditions: previously reported (ref. 5); cited from earlier work.
In data set [7] the test system is Pgp over-expressing KBV1 cells. Nature of the data set: Efflux of 14C-Dp44mT, KBV1 cells. The data set is classed as cell-based, Human. The protocol: as §3

SMILES strings stand for the structures.

On to `CN(C)C(=S)NN=C(c1ccccn1)c1ccccn1` [Dp44mT, di-2-pyridylketone 4,4-dimethyl-3-thiosemicarbazone], for which the “change of cytotoxicity in presence of Pgp inhibitors Val or Ela” value in data set [1] (2008/P200A cells, Val 1 μM, Ela 0.1 μM) is listed as “significantly (p<0.001) decreased sensitivity”; in data set [4] it was “no significant (p>0.05) change”; in data set [5] (KBV1 cells, Val 1 μM, Ela 0.1 μM), “clear decrease in the cytotoxicity”. In data set [1] (72 h), the “sensitivity of 2008/P200A cells compared to 2008 cells” value was “significantly (p<0.001) increased sensitivity”. The “lysosomal integrity (acridine orange)” value in data set [2] (30 min incubation) is “did not compromise lysosomal integrity”; in data set [2] (KBV1 cells, 25 μM, 24 h), “decreased lysosomal integrity”. Besides, the “lysosomal damage in presence of Val” value in data set [2] (KBV1 cells, 24 h, with Pgp inhibitor Val) is reported as “significantly (p<0.01) reduced lysosomal damage”. Moreover, the “accumulation after pre-treatment with lysosomotropic agents” value in data set [3] is given as “significantly (p<0.001) decreased”. The “more cytotoxic in drug-resistant KBV1 cells compared to KB31 cells” value in data set [5] is recorded as 31 fold. Moreover, the “cytotoxicity to KBV1 cells relative to KB31 cells” value in data set [6] is “increased cytotoxicity”. The “efflux in KBV1 cells in comparison to KB31 cells” value in data set [7] (1-10 min incubation) is “significantly (p<0.001) higher efflux”. The “effect of Val and Ela on efflux” value in data set [7] (KBV1 cells, Val 1 μM or Ela 0.1 μM) is reported as “significantly (p<0.01-0.001) suppressed efflux”.
